Test results: US20260166021A1, “POLYMORPHIC FORMS OF A SOLUBLE EPOXIDE HYDROLASE INHIBITOR AND FORMULATIONS THEREOF” (EicOsis, LLC, priority 2022, published 2026)
Converted amounts (≈) assume the structure as drawn. “And” between values parts separate entries of the source, which are not always exact repeats. Equal values may be shown once. Marks after values point to notes of the source that are not given here.

What was measured:
Assay type in all cases: physicochemical
[1] = Hygroscopic analyses: stability at 75% relative humidity and 40° C. (XRD); conditions: open vial, after 4 and 14 days
Description: To further evaluate physical stability, Form D was tested for stability in humid conditions. […] FIG. 84 summarizes XRD analyses used to monitor the polymorph over the 14-day experiment. In this figure, the top panel provides a representative XRD spectrum of Form D, the second from the top panel is an XRD spectrum of the starting material, the third from the top panel is an XRD spectrum of the starting material after 4 days of humidity exposure, and the bottom panel is an XRD spectrum of the starting material after 14 days of humidity exposure.

[2] = Supersaturation monitoring in PEG 300; conditions: PEG 300 (0.5 mL)
[3] = Equilibrium-solubility screening in solvents and excipients; conditions: for solubility thermodynamic at 24 h: thermodynamic from solid
Description: For these analyses, Form D or Form C was mixed with 0.5 or 1.0 mL of solvents and equilibrated for approximately 24 hours. The mixture was filtered through 0.45 μm centrifuge filters.
As expected, the compound was not easily ionized at physiologically relevant pH. […] In addition, these excipients included surfactants, co-solvents, and lipids which are amenable for use in self-emulsifying drug delivery systems (SEDDS). The XRD pattern of the starting material was maintained for each sample after equilibrium.

[4] = Particle size analysis (Malvern particle sizer, dry method; optical microscopy)
Description: Particle size was first analyzed with optical microscopy.
Particle size was also analyzed with a dry-method using a Malvern 300 particle sizer equipped with a standard energy venturi and utilizing 2.5 bar, 3.0 bar, and 3.5 bar air pressure. […] One possible explanation is that the insufficient energy was provided to break up particle agglomerations.
Based on these findings, particle size analysis was repeated at 2.5, 3.0, and 3.5 bar using a higher energy venturi to ensure the break-up of the potential agglomerates. The detailed particle sizing data using high-energy venturi are summarized in TABLE 26 and in FIGS. 114-119, with FIGS. 114-116 corresponding to 2.5, 3.0, and 3.5 bar analyses of unmilled Form D and FIGS. 117-119 corresponding to 2.5, 3.0, and 3.5 bar analyses of micronized Form D, respectively. While the data remained bimodal, indicating incomplete break-up of particle agglomerates, the D90 of micronized material measured below 6 μm, in closer agreement with the optical analyses.

[5] = Capmul MCM, (medium name cut off)
[6] = Castor Oil, (medium name cut off)
[7] = milled (micronized), 2.5 bar air pressure, high-energy venturi
[8] = milled (micronized), 2.5 bar air pressure, standard energy venturi
[9] = milled (micronized), 3.0 bar air pressure, high-energy venturi
[10] = milled (micronized), 3.0 bar air pressure, standard energy venturi
[11] = milled (micronized), 3.5 bar air pressure, high-energy venturi
[12] = milled (micronized), 3.5 bar air pressure, standard energy venturi
[13] = unmilled, 2.5 bar air pressure, high-energy venturi
[14] = unmilled, 2.5 bar air pressure, standard energy venturi
[15] = unmilled, 3.0 bar air pressure, high-energy venturi
[16] = unmilled, 3.0 bar air pressure, standard energy venturi
[17] = unmilled, 3.5 bar air pressure, high-energy venturi
[18] = unmilled, 3.5 bar air pressure, standard energy venturi

SMILES: CC[C@H](C)C(=O)N1CCC(NC(=O)Nc2ccc(OC(F)(F)F)c(F)c2)CC1 [Form D, (S)-1-(3-fluoro-4-(trifluoromethoxy)phenyl)-3-(1-(2-methylbutanoyl)piperidin-4-yl)urea]
- polymorph stability in humid conditions [1]: unchanged
- Step → Observation ([2]; 100 mg/mL, 1. RT stirring for 1 hr, listed as Pattern D): 1. RT stirring for 1 hr → suspension
- Step → Observation ([2]; 100 mg/mL, 2. 40 C. heating for 0.5 hr, listed as Pattern D): 2. 40 C. heating for 0.5 hr → clear solution
- Step → Observation ([2]; 100 mg/mL, 3. RT storage for ~8 days, listed as Pattern D): 3. RT storage for ~8 days → clear solution
- Step → Observation ([2]; 100 mg/mL, 4. RT storage for ~9 days, listed as Pattern D): 4. RT storage for ~9 days → precipitation
- Step → Observation ([2]; 200 mg/mL, 1. RT stirring for 1 hr): 1. RT stirring for 1 hr →suspension
- Step → Observation ([2]; 200 mg/mL, 2. 40 C. heating for 48 hr, listed as Pattern D): 2. 40 C. heating for 48 hr →suspension
- Step → Observation ([2]; 200 mg/mL, 3. 55 C. heating for <16 hr): 3. 55 C. heating for <16 hr →clear solution
- Step → Observation ([2]; 200 mg/mL, 4. RT storage for <3.5 days): 4. RT storage for <3.5 days →precipitation
- Step → Observation ([2]; 200 mg/mL, 5. 55 C. reheating for overnight): 5. 55 C. reheating for overnight →clear solution
- Step → Observation ([2]; 200 mg/mL, 6. RT storage for overnight): 6. RT storage for overnight →precipitation
- Equilibrium Solubility ([3]; Campul MCM): 56.2 mg/mL
- XRD Pattern At Equilibrium ([3]; Campul MCM): Form D
- XRD Pattern At Equilibrium ([3]; Canola Oil): Form D
- solubility thermodynamic at 24 h ([3]; Canola Oil, oil or lipid): < 100 µg/mL
- Equilibrium Solubility [3, 5]: 24.5 mg/mL
- XRD Pattern At Equilibrium [3, 5]: Form D
- Equilibrium Solubility ([3]; Captex 355): 2.0 mg/mL
- XRD Pattern At Equilibrium ([3]; Captex 355): Form D
- Equilibrium Solubility ([3]; Castor Oil): 5.5 mg/mL
- XRD Pattern At Equilibrium ([3]; Castor Oil): Form D
- Equilibrium Solubility [3, 6]: 42.6** mg/mL
- XRD Pattern At Equilibrium [3, 6]: Form D
- XRD Pattern At Equilibrium ([3]; Corn Oil): Form D
- solubility thermodynamic at 24 h ([3]; Corn Oil, oil or lipid): < 100 µg/mL
- XRD Pattern At Equilibrium ([3]; DI water): Form C (minor
- XRD Pattern At Equilibrium, minor form ([3]; DI water): Form D)
- solubility thermodynamic at 24 h ([3]; DI water, water, approximately 24 hours): < 100 µg/mL
- Equilibrium Solubility ([3]; FaSSIF): 0.2 mg/mL
- XRD Pattern At Equilibrium ([3]; FaSSIF): Form D
- solubility thermodynamic at 24 h ([3]; FaSSIF): < 100 µg/mL
- Equilibrium Solubility ([3]; Gelucire 44/14): 37.7** mg/mL
- XRD Pattern At Equilibrium ([3]; Gelucire 44/14): Form D
- XRD Pattern At Equilibrium ([3]; Glycerol): Form D
- solubility thermodynamic at 24 h ([3]; Glycerol, organic solvent or mixture): < 100 µg/mL
- Equilibrium Solubility ([3]; Intralipid): 0.1 mg/mL
- XRD Pattern At Equilibrium ([3]; Intralipid): Form D
- Equilibrium Solubility ([3]; Kolliphor): 1.4 mg/mL
- XRD Pattern At Equilibrium ([3]; Kolliphor): Form D
- Equilibrium Solubility ([3]; Kolliphor EL): 20.4 mg/mL
- XRD Pattern At Equilibrium ([3]; Kolliphor EL): Form D
- Equilibrium Solubility ([3]; Kolliphor HS-): 37.3** mg/mL
- XRD Pattern At Equilibrium ([3]; Kolliphor HS-): Form D
- Equilibrium Solubility ([3]; Labrafil): 9.6 mg/mL
- XRD Pattern At Equilibrium ([3]; Labrafil): Form D
- Equilibrium Solubility ([3]; Labrasol): 21.8 mg/mL
- XRD Pattern At Equilibrium ([3]; Labrasol): Form D
- Equilibrium Solubility ([3]; Miglyol 810): 2.0 mg/mL
- XRD Pattern At Equilibrium ([3]; Miglyol 810): Form D
- Equilibrium Solubility ([3]; Miglyol 812): 1.9 mg/mL
- XRD Pattern At Equilibrium ([3]; Miglyol 812): Form D
- solubility thermodynamic at 24 h ([3]; NaOH solution, pH 10.0, pH 10, aqueous buffer, pH 10.0 NaOH): < 100 µg/mL
- Equilibrium Solubility ([3]; Oleic Acid): 9.0 mg/mL
- XRD Pattern At Equilibrium ([3]; Oleic Acid): Form D
- Equilibrium Solubility ([3]; PEG 300, 50%): 0.4 mg/mL and 0.5 mg/mL
- XRD Pattern At Equilibrium ([3]; PEG 300, 50%): Form D
- XRD Pattern At Equilibrium ([3]; PEG 300, 100%): Form D
- XRD Pattern At Equilibrium ([3]; PEG 400, 50%): Form D
- solubility thermodynamic at 24 h ([3]; PEG 400, 50%, aqueous with cosolvent or surfactant or cyclodextrin): 900 µg/mL (≈ 2220 µM)
- Equilibrium Solubility ([3]; PEG 400, 100%): 17.0 mg/mL
- XRD Pattern At Equilibrium ([3]; PEG 400, 100%): Form D
- solubility thermodynamic at 24 h ([3]; PEG 400, 100%, organic solvent or mixture): 20100 µg/mL (≈ 49600 µM)
- Equilibrium Solubility ([3]; Peceol): 12.9 mg/mL
- XRD Pattern At Equilibrium ([3]; Peceol): Form D
- Equilibrium Solubility ([3]; Plurol Oleique): 8.7 mg/mL
- XRD Pattern At Equilibrium ([3]; Plurol Oleique): Form D
- Equilibrium Solubility ([3]; Propylene): 24.1 mg/mL
- XRD Pattern At Equilibrium ([3]; Propylene): Form D
- XRD Pattern At Equilibrium ([3]; SLS, 1x CMC): Form C
- solubility thermodynamic at 24 h ([3]; SLS, 1x CMC, aqueous with cosolvent or surfactant or cyclodextrin): < 100 µg/mL
- Equilibrium Solubility ([3]; SLS, 5x CMC): 1.2 mg/mL
- XRD Pattern At Equilibrium ([3]; SLS, 5x CMC): Form C
- Equilibrium Solubility ([3]; SLS, 10x CMC): 1.5 mg/mL
- XRD Pattern At Equilibrium ([3]; SLS, 10x CMC): Form C
- Equilibrium Solubility ([3]; SLS, 100x CMC): 2.5 mg/mL
- XRD Pattern At Equilibrium ([3]; SLS, 100x CMC): Form C
- XRD Pattern At Equilibrium ([3]; Soybean Oil): Form D
- solubility thermodynamic at 24 h ([3]; Soybean Oil, oil or lipid): < 100 µg/mL
- Equilibrium Solubility ([3]; Sulfobutylether): 7.9 mg/mL
- XRD Pattern At Equilibrium ([3]; Sulfobutylether): Form D
- Equilibrium Solubility ([3]; Transcutol HP): 38.1 mg/mL
- XRD Pattern At Equilibrium ([3]; Transcutol HP): Form D
- Equilibrium Solubility ([3]; Triacetin): 6.4 mg/mL
- XRD Pattern At Equilibrium ([3]; Triacetin): Form D
- XRD Pattern At Equilibrium ([3]; Tween 80, 1x): Form C
- solubility thermodynamic at 24 h ([3]; Tween 80, 1x, aqueous with cosolvent or surfactant or cyclodextrin): < 100 µg/mL
- XRD Pattern At Equilibrium ([3]; Tween 80, 5x): Form C
- solubility thermodynamic at 24 h ([3]; Tween 80, 5x, aqueous with cosolvent or surfactant or cyclodextrin): < 100 µg/mL
- XRD Pattern At Equilibrium ([3]; Tween 80, 10x): Form C
- solubility thermodynamic at 24 h ([3]; Tween 80, 10x, aqueous with cosolvent or surfactant or cyclodextrin): < 100 µg/mL
- XRD Pattern At Equilibrium ([3]; Tween 80, 100x): Form C
- solubility thermodynamic at 24 h ([3]; Tween 80, 100x, aqueous with cosolvent or surfactant or cyclodextrin): < 100 µg/mL
- Equilibrium Solubility ([3]; Vitamin E): 40.6** mg/mL
- XRD Pattern At Equilibrium ([3]; Vitamin E): Form D
- XRD Pattern At Equilibrium ([3]; pH 1.0 HCl): Forms C & D
- solubility thermodynamic at 24 h ([3]; pH 1.0 HCl, pH 1, simulated gastric fluid): < 100 µg/mL
- XRD Pattern At Equilibrium ([3]; pH 7.4): Form D
- solubility thermodynamic at 24 h ([3]; pH 7.4 medium (buffer not named), pH 7.4, aqueous buffer, pH 7.4): < 100 µg/mL
- XRD Pattern At Equilibrium ([3]; pH 10.0 NaOH): Forms C & D
- D10 [4, 7]: 0.46 μm
- D50 [4, 7]: 1.52 μm
- D90 [4, 7]: 5.80 μm
- PSD Modal [4, 7]: Bimodal
- D10 [4, 8]: 0.56 μm
- D50 [4, 8]: 1.85 μm
- D90 [4, 8]: 45.9 μm
- PSD Modal [4, 8]: Bimodal
- D10 [4, 9]: 0.46 μm
- D50 [4, 9]: 1.47 μm
- D90 [4, 9]: 5.42 μm
- PSD Modal [4, 9]: Bimodal
- D10 [4, 10]: 0.55 μm
- D50 [4, 10]: 1.80 μm
- D90 [4, 10]: 47.4 μm
- PSD Modal [4, 10]: Bimodal
- D10 [4, 11]: 0.44 μm
- D50 [4, 11]: 1.51 μm
- D90 [4, 11]: 5.44 μm
- PSD Modal [4, 11]: Bimodal
- D10 [4, 12]: 0.54 μm
- D50 [4, 12]: 1.69 μm
- D90 [4, 12]: 29.4 μm
- PSD Modal [4, 12]: Bimodal
- D10 [4, 13]: 5.24 μm
- D50 [4, 13]: 22.0 μm
- D90 [4, 13]: 55.8 μm
- PSD Modal [4, 13]: Bimodal
- D10 [4, 14]: 8.66 μm
- D50 [4, 14]: 34.5 μm
- D90 [4, 14]: 79.3 μm
- PSD Modal [4, 14]: Unimodal
- D10 [4, 15]: 4.47 μm
- D50 [4, 15]: 20.1 μm
- D90 [4, 15]: 54.8 μm
- PSD Modal [4, 15]: Bimodal
- D10 [4, 16]: 8.26 μm
- D50 [4, 16]: 35.0 μm
- D90 [4, 16]: 91.2 μm
- PSD Modal [4, 16]: Unimodal
- D10 [4, 17]: 2.84 μm
- D50 [4, 17]: 17.2 μm
- D90 [4, 17]: 51.1 μm
- PSD Modal [4, 17]: Bimodal
- D10 [4, 18]: 7.37 μm
- D50 [4, 18]: 33.1 μm
- D90 [4, 18]: 78.6 μm
- PSD Modal [4, 18]: Unimodal
